Source: patent US20240316059A1, “PEPTIDE DRUG CONJUGATES” (Oncopeptides AB, priority 2021, published 2024)
Like-named read-outs stand apart in the source and are kept apart here.

What was measured:
[1] = system: MM.1S cells; experiment: In vitro cytotoxic potency in MM.1S cell viability assay (CellTiter-Glo); assay type: cell-based, human; settings: Homo sapiens, MM1.S, 72 h
Description: Methods: MM.1S Cells were cultivated in RPMI medium 1640 (IX) supplemented with 10 μg/μL penicillin/streptomycin, 10% heat inactivated FBS, 0.1 mM Sodium Pyruvate, 1×MEM NEAA (ThermoFisher) and 1 mM HEPES. Cells were grown to reach log phase before being exposed to the test compounds.
(§1) Test compounds (Example compounds 1 to 36, 38 to 41 and 45 to 48) and comparative compounds (bendamustine, busulfan, melphalan, chlorambucil and 4-hydroperoxy cyclophosphamide) were dissolved in 100% DMSO and added to a 384 assay plate. Additional DMSO was added to maintain the same final DMSO concentration (0.2%) in all wells. 25 μL cell suspension with a concentration of 100000 cells/mL was added to each well. The cells were cultured in a CO2 incubator at 37° C. for 72 h. Plates were equilibrated to room temperature for 30 minutes before adding 20 μL CellTiter-Glo® 2.0 (Promega) reagent to all wells. The plate was then allowed to stabilize for 20 minutes before recording the luminescence (emission filter 700 nm) in an Envision plate reader.
(§2) All cells were cultivated in RPMI medium 1640 (IX). All media was supplemented with 10 μg/μl penicillin/streptomycin, 10% heat inactivated FBS, 0.1 mM Sodium Pyruvate, 1×MEM NEAA (ThermoFisher) and 1 mM HEPES. The DERL-2 cells had higher FBS (20%) and 40 ng/mL IL-2 was added. hPBMCs were thawed and allowed to acclimatise overnight and then stimulated with 10 μg/mL PHA-M and 40 ng/mL IL-2 for 4 hours before being exposed to test compounds. All cells, except for hPBMCs, were grown to reach log phase before being exposed to the test compounds.
as §1, with “compounds” for “compounds (Example compounds 1 to 36, 38 to 41 and 45 to 48) and comparative compounds (bendamustine, busulfan, melphalan, chlorambucil and 4-hydroperoxy cyclophosphamide)”, “(Em” for “(emission”

[2] = system: U937; experiment: In vitro cytotoxicity, U937 (Histiocytic Lymphoma); assay type: cell-based; settings: Homo sapiens, U-937, 72 h, read-out: Cytotoxicity IC50, U937
Description: as §2
as §1, with “compounds” for “compounds (Example compounds 1 to 36, 38 to 41 and 45 to 48) and comparative compounds (bendamustine, busulfan, melphalan, chlorambucil and 4-hydroperoxy cyclophosphamide)”, “(Em” for “(emission”

[3] = system: RPMI-8226; experiment: In vitro cytotoxicity, RPMI-8226 (Multiple Myeloma, resistant); assay type: cell-based; settings: Homo sapiens, RPMI-8226, 72 h, read-out: Cytotoxicity IC50, RPMI-8226
Description: as §2
as §1, with “compounds” for “compounds (Example compounds 1 to 36, 38 to 41 and 45 to 48) and comparative compounds (bendamustine, busulfan, melphalan, chlorambucil and 4-hydroperoxy cyclophosphamide)”, “(Em” for “(emission”

[4] = system: SK-MM-1; experiment: In vitro cytotoxicity, SK-MM-1 (Plasma Cell Leukemia); assay type: cell-based; settings: Homo sapiens, 72 h, read-out: Cytotoxicity IC50, SK-MM-1
Description: as §2
as §1, with “compounds” for “compounds (Example compounds 1 to 36, 38 to 41 and 45 to 48) and comparative compounds (bendamustine, busulfan, melphalan, chlorambucil and 4-hydroperoxy cyclophosphamide)”, “(Em” for “(emission”

[5] = system: DOHH-2; experiment: In vitro cytotoxicity, DOHH-2 (B Cell Lymphoma); assay type: cell-based; settings: Homo sapiens, DOHH-2, 72 h, read-out: Cytotoxicity IC50, DOHH-2
Description: as §2
as §1, with “compounds” for “compounds (Example compounds 1 to 36, 38 to 41 and 45 to 48) and comparative compounds (bendamustine, busulfan, melphalan, chlorambucil and 4-hydroperoxy cyclophosphamide)”, “(Em” for “(emission”

[6] = system: HG-3; experiment: In vitro cytotoxicity, HG-3 (Chronic Lymphocytic Leukemia); assay type: cell-based; settings: Homo sapiens, HG-3, 72 h, read-out: Cytotoxicity IC50, HG-3
Description: as §2
as §1, with “compounds” for “compounds (Example compounds 1 to 36, 38 to 41 and 45 to 48) and comparative compounds (bendamustine, busulfan, melphalan, chlorambucil and 4-hydroperoxy cyclophosphamide)”, “(Em” for “(emission”

[7] = system: SC-1; experiment: In vitro cytotoxicity, SC-1 (B cell Lymphoma); assay type: cell-based; settings: Homo sapiens, SC-1, 72 h, read-out: Cytotoxicity IC50, SC-1
Description: as §2
as §1, with “compounds” for “compounds (Example compounds 1 to 36, 38 to 41 and 45 to 48) and comparative compounds (bendamustine, busulfan, melphalan, chlorambucil and 4-hydroperoxy cyclophosphamide)”, “(Em” for “(emission”

[8] = system: SU-DHL-8; experiment: In vitro cytotoxicity, SU-DHL-8 (B-cell non-Hodgkin Lymphoma); assay type: cell-based; settings: Homo sapiens, SU-DHL-8, 72 h, read-out: Cytotoxicity IC50, SU-DHL-8
Description: as §2
as §1, with “compounds” for “compounds (Example compounds 1 to 36, 38 to 41 and 45 to 48) and comparative compounds (bendamustine, busulfan, melphalan, chlorambucil and 4-hydroperoxy cyclophosphamide)”, “(Em” for “(emission”

[9] = system: Toledo; experiment: In vitro cytotoxicity, Toledo (Diffuse Large B Cell Lymphoma); assay type: cell-based; settings: Homo sapiens, 72 h, read-out: Cytotoxicity IC50, Toledo
Description: as §2
as §1, with “compounds” for “compounds (Example compounds 1 to 36, 38 to 41 and 45 to 48) and comparative compounds (bendamustine, busulfan, melphalan, chlorambucil and 4-hydroperoxy cyclophosphamide)”, “(Em” for “(emission”

[10] = system: DERL-2; experiment: In vitro cytotoxicity, DERL-2 (T cell Lymphoma); assay type: cell-based; settings: Homo sapiens, 72 h, read-out: Cytotoxicity IC50, DERL-2
Description: as §2
as §1, with “compounds” for “compounds (Example compounds 1 to 36, 38 to 41 and 45 to 48) and comparative compounds (bendamustine, busulfan, melphalan, chlorambucil and 4-hydroperoxy cyclophosphamide)”, “(Em” for “(emission”

[11] = system: SUP-T1; experiment: In vitro cytotoxicity, SUP-T1 (T cell Lymphoma); assay type: cell-based; settings: Homo sapiens, SUP-T1, 72 h, read-out: Cytotoxicity IC50, SUP-T1
Description: as §2
as §1, with “compounds” for “compounds (Example compounds 1 to 36, 38 to 41 and 45 to 48) and comparative compounds (bendamustine, busulfan, melphalan, chlorambucil and 4-hydroperoxy cyclophosphamide)”, “(Em” for “(emission”

[12] = In vitro cytotoxicity, human peripheral blood mononuclear cells; assay type: cell-based; settings: CellTiter-Glo 2.0, stimulated with PHA-M and IL-2, read-out: Cytotoxicity IC50, hPBMC
Description: as §2
as §1, with “compounds” for “compounds (Example compounds 1 to 36, 38 to 41 and 45 to 48) and comparative compounds (bendamustine, busulfan, melphalan, chlorambucil and 4-hydroperoxy cyclophosphamide)”, “(Em” for “(emission”

[13] = system: DNA prepared from MM.1S cells (nuclear HPRT and mitochondrial DNA); experiment: Direct DNA damage, PCR amplification of treated DNA (HPRT and mtDNA primers); assay type: biochemical, human; settings: 0.25 μM compound, 30 minutes, 37° C., 1 μg DNA
Description: Method: DNA was prepared from MM.1S cells by QIAGEN genomic tip 20/G according to protocol described in Furda et al., Methods Mol Biol, 2012. 1 μg of DNA was treated with 0.25 μM compound for 30 minutes at 37° C. DMSO was used as control treatment. 20 ng of the treated DNA was PCR amplified using Phusion Hot Start II High Fidelity PCR Master Mix (Thermo Scientific) and primers directed to either HPRT or primers directed to mitochondrial DNA (mtDNA) was used, generating 10.4 or 8.9 kb fragments, respectively. The PCR reactions were separated on a 1% agarose gel and visualized by ChemiDoc™ MP Imaging System (BioRad). Example compounds 1, 2 and 38 were investigated, as were compounds 18 and 20, which are metabolites of compound 1. They were compared with bendamustine, melphalan and DMSO control. The results for compounds 1, 2, 18 and 20 with the HPRT primers are shown in FIG. 4(A); the results with the mtDNA primers are shown in FIG. 4(B).

[14] = read-out: Cytotoxicity IC50, MM.1S

Row | Structure (SMILES) | IC50 [1, 14] | IC50 ([1]; read-out: MM.1S IC50) | IC50 [2] | IC50 [3] | IC50 [4] | IC50 [5] | IC50 [6] | IC50 [7] | IC50 [8] | IC50 [9] | IC50 [10] | IC50 [11] | IC50 at 72 h [12] | DNA damage on nuclear and mitochondrial DNA (PCR band) [13]
1 | CCOC(=O)[C@H](Cc1ccc(F)cc1)NC(=O)[C@@H](N)CCc1nc2cc(N(CCCl)CCCl)ccc2n1C [Example 2, Ethyl (2S)-2-[[(2S)-2-amino-4-[5-[bis(2-chloroethyl)amino]-1-methyl-benzimidazol-2-yl]butanoyl]amino]-3-(4-fluorophenyl)propanoate] | 7.8 nM | 7.8 nM | 14.2 nM | 41.5 nM | 38.3 nM | 5.3 nM | 25.7 nM | 21 nM | 20.4 nM | 6.6 nM | 7.8 nM | 17.8 nM | 7.5 nM | strong DNA damaging effect
2 | CCOC(=O)[C@H](Cc1nc2cc(N(CCCl)CCCl)ccc2n1C)NC(=O)[C@@H](N)CC(C)C [Example 10, Ethyl (2S)-2-[[(2S)-2-amino-4-methyl-pentanoyl]amino]-3-[5-[bis(2-chloroethyl)amino]-1-methyl-benzimidazol-2-yl]propanoate] | 19.2 nM | 19.2 nM | 19.4 nM | 335 nM | 62.4 nM | 63.9 nM | 71.3 nM | 169 nM | 22.1 nM | 8.5 nM | 22.6 nM | 35.6 nM | 26.4 nM | 
